# Experimental data taken from PubChem BioAssay AID2060895 (Molecular Pharmacology Branch, DTP, NCI, 2025).
# “And” between values parts separate entries of the source, which are not always exact repeats. Equal values may be shown once.
# Tested on: PDC 899932-113-R3-J6 complex spheroid viability
# Test: Anticancer human tumor 899932-113-R3-J6-PDC patient-derived melanoma cell line growth inhibition [RAS]
# Settings: for viability, T/C: stronger effect = lower value
# In short: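 Multi-cell-type spheroids: tumor cells plus HUVEC endothelial cells and mesenchymal stem cells. RAS-pathway inhibitors were combined with targeted agents, each dosed in half-log steps down from clinical Cmax, or from 10 microM when Cmax was unknown.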
# [1] = curve of first compound, second compound 0.0316 µM
# [2] = curve of first compound, second compound 0.1 µM
# [3] = curve of first compound, second compound 0.316 µM
# [4] = curve of first compound, second compound 1 µM
# [5] = curve of first compound, second compound 3.16 µM
# [6] = curve of first compound, second compound 10 µM
# [7] = second compound 0.0316 µM, first compound 0.0316 µM
# [8] = second compound 0.0316 µM, first compound 0.1 µM
# [9] = second compound 0.0316 µM, first compound 0.316 µM
# [10] = second compound 0.0316 µM, first compound 1 µM
# [11] = second compound 0.0316 µM, first compound 3.16 µM
# [12] = second compound 0.0316 µM, first compound 10 µM
# [13] = second compound 0.1 µM, first compound 0.0316 µM
# [14] = second compound 0.1 µM, first compound 0.1 µM
# [15] = second compound 0.1 µM, first compound 0.316 µM
# [16] = second compound 0.1 µM, first compound 1 µM
# [17] = second compound 0.1 µM, first compound 3.16 µM
# [18] = second compound 0.1 µM, first compound 10 µM
# [19] = second compound 0.316 µM, first compound 0.0316 µM
# [20] = second compound 0.316 µM, first compound 0.1 µM
# [21] = second compound 0.316 µM, first compound 0.316 µM
# [22] = second compound 0.316 µM, first compound 1 µM
# [23] = second compound 0.316 µM, first compound 3.16 µM
# [24] = second compound 0.316 µM, first compound 10 µM
# [25] = second compound 1 µM, first compound 0.0316 µM
# [26] = second compound 1 µM, first compound 0.1 µM
# [27] = second compound 1 µM, first compound 0.316 µM
# [28] = second compound 1 µM, first compound 1 µM
# [29] = second compound 1 µM, first compound 3.16 µM
# [30] = second compound 1 µM, first compound 10 µM
# [31] = second compound 3.16 µM, first compound 0.0316 µM
# [32] = second compound 3.16 µM, first compound 0.1 µM
# [33] = second compound 3.16 µM, first compound 0.316 µM
# [34] = second compound 3.16 µM, first compound 1 µM
# [35] = second compound 3.16 µM, first compound 3.16 µM
# [36] = second compound 3.16 µM, first compound 10 µM
# [37] = second compound 10 µM, first compound 0.0316 µM
# [38] = second compound 10 µM, first compound 0.1 µM
# [39] = second compound 10 µM, first compound 0.316 µM
# [40] = second compound 10 µM, first compound 1 µM
# [41] = second compound 10 µM, first compound 3.16 µM
# [42] = second compound 10 µM, first compound 10 µM
# 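For viability, T/C in this document: spheroids exposed to agents for seven days before readout; 100% = DMSO vehicle control wells.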
structure (smiles),measurement,setting,value
NC1c2ccccc2OC12CCN(c1cnc3c(N4CCCc5ncccc54)n[nH]c3n1)CC2 (stereo not given) + C#Cc1c(F)ccc2cc(O)cc(-c3ncc4c(N5CC6CCC(C5)N6)nc(OCC56CCCN5CC(F)C6)nc4c3F)c12,IC50,[1],> 10000 nM
same,IC50,[2],> 10000 nM
same,IC50,[3],> 10000 nM
same,IC50,[4],> 10000 nM
same,IC50,[5],> 10000 nM
same,IC50,[6],> 10000 nM
same,"viability, T/C",[7],108%
same,"viability, T/C",[8],103%
same,"viability, T/C",[9],117%
same,"viability, T/C",[10],121%
same,"viability, T/C",[11],104%
same,"viability, T/C",[12],98.8%
same,"viability, T/C",[13],111%
same,"viability, T/C",[14],115%
same,"viability, T/C",[15],114%
same,"viability, T/C",[16],114%
same,"viability, T/C",[17],117%
same,"viability, T/C",[18],96.4%
same,"viability, T/C",[19],108%
same,"viability, T/C",[20],120%
same,"viability, T/C",[21],105%
same,"viability, T/C",[22],116%
same,"viability, T/C",[23],110%
same,"viability, T/C",[24],96.6%
same,"viability, T/C",[25],106%
same,"viability, T/C",[26],104%
same,"viability, T/C",[27],124%
same,"viability, T/C",[28],112%
same,"viability, T/C",[29],105%
same,"viability, T/C",[30],111%
same,"viability, T/C",[31],134%
same,"viability, T/C",[32],112%
same,"viability, T/C",[33],135%
same,"viability, T/C",[34],133%
same,"viability, T/C",[35],120%
same,"viability, T/C",[36],107%
same,"viability, T/C",[37],123%
same,"viability, T/C",[38],126%
same,"viability, T/C",[39],120%
same,"viability, T/C",[40],117%
same,"viability, T/C",[41],112%
same,"viability, T/C",[42],86.5%
C=CC(=O)N1CCN(c2nc(OCC3CCCN3C)nc3c(F)c(-c4nc(N)cc(C)c4C(F)(F)F)c(Cl)cc23)C(C)C1 (stereo not given),"viability, T/C",compound 0.00316 µM,109% [middle of 12 runs]
same,"viability, T/C",compound 0.01 µM,108% [middle of 12 runs]
same,"viability, T/C",compound 0.0316 µM,108% [middle of 12 runs]
same,"viability, T/C",compound 0.1 µM,107% [middle of 12 runs]
same,"viability, T/C",compound 0.316 µM,105% [middle of 12 runs]
same,"viability, T/C",compound 1 µM,103% [middle of 12 runs]
same,IC50,"compound alone, run of 09/09/2024",> 1000 nM
same,IC50,curve of compound,> 1000 nM
CCn1c(-c2cc(N3CCN(C)CC3)cnc2C(C)OC)c2c3cc(ccc31)-c1csc(n1)CC(NC(=O)C1CC1C)C(=O)N1CCCC(N1)C(=O)OCC(C)(C)C2 (stereo not given),"viability, T/C",compound 0.000949 µM,76% [middle of 8 runs]
same,"viability, T/C",compound 0.003 µM,38.2% [middle of 8 runs]
same,"viability, T/C",compound 0.00949 µM,3.79% [middle of 8 runs]
same,"viability, T/C",compound 0.03 µM,3.16% [middle of 8 runs]
same,"viability, T/C",compound 0.0949 µM,2.66% [middle of 8 runs]
same,"viability, T/C",compound 0.3 µM,2.33% [middle of 8 runs]
same,IC50,"compound alone, run of 08/26/2024",2.05 nM [middle of 7 runs]
NC1c2ccccc2OC12CCN(c1cnc3c(N4CCCc5ncccc54)n[nH]c3n1)CC2 (stereo not given),"viability, T/C",compound 0.0316 µM,114% [middle of 4 runs]
same,"viability, T/C",compound 0.1 µM,106% [middle of 4 runs]
same,"viability, T/C",compound 0.316 µM,115% [middle of 4 runs]
same,"viability, T/C",compound 1 µM,112% [middle of 4 runs]
same,"viability, T/C",compound 3.16 µM,114% (2×) and 102% and 108%
same,"viability, T/C",compound 10 µM,105% (2×) and 86.2% and 87.2%
same,IC50,curve of compound,> 10000 nM
CC(Nc1ccc2c(c1)OCCn1cc(N3C(=O)OCC3C(F)F)nc1-2)C(N)=O (stereo not given) + CCn1c(-c2cccnc2C(C)OC)c2c3cc(ccc31)N1CCOC(CC(NC(=O)C(C(C)C)N(C)C(=O)C3(F)CCN(C(=O)C#CC(C)(C)N(C)C)CC3)C(=O)N3CCCC(N3)C(=O)OCC(C)(C)C2)C1,IC50,"curve of first compound, second compound 0.000949 µM",1620 nM
same,IC50,"curve of first compound, second compound 0.003 µM",1870 nM
same,IC50,"curve of first compound, second compound 0.00949 µM",1380 nM
same,IC50,"curve of first compound, second compound 0.03 µM",1370 nM
same,IC50,"curve of first compound, second compound 0.0949 µM",650 nM
same,IC50,"curve of first compound, second compound 0.3 µM",153 nM
same,"viability, T/C","second compound 0.000949 µM, first compound 0.0316 µM",94.8%
same,"viability, T/C","second compound 0.000949 µM, first compound 0.1 µM",78.5%
same,"viability, T/C","second compound 0.000949 µM, first compound 0.316 µM",64.5%
same,"viability, T/C","second compound 0.000949 µM, first compound 1 µM",56.1%
same,"viability, T/C","second compound 0.000949 µM, first compound 3.16 µM",43.4%
same,"viability, T/C","second compound 0.000949 µM, first compound 10 µM",36.1%
same,"viability, T/C","second compound 0.003 µM, first compound 0.0316 µM",90.1%
same,"viability, T/C","second compound 0.003 µM, first compound 0.1 µM",80.9%
same,"viability, T/C","second compound 0.003 µM, first compound 0.316 µM",67%
same,"viability, T/C","second compound 0.003 µM, first compound 1 µM",55.6%
same,"viability, T/C","second compound 0.003 µM, first compound 3.16 µM",46%
same,"viability, T/C","second compound 0.003 µM, first compound 10 µM",34.1%
same,"viability, T/C","second compound 0.00949 µM, first compound 0.0316 µM",94.7%
same,"viability, T/C","second compound 0.00949 µM, first compound 0.1 µM",80.5%
same,"viability, T/C","second compound 0.00949 µM, first compound 0.316 µM",66.4%
same,"viability, T/C","second compound 0.00949 µM, first compound 1 µM",51.2%
same,"viability, T/C","second compound 0.00949 µM, first compound 3.16 µM",44.6%
same,"viability, T/C","second compound 0.00949 µM, first compound 10 µM",36%
same,"viability, T/C","second compound 0.03 µM, first compound 0.0316 µM",86.5%
same,"viability, T/C","second compound 0.03 µM, first compound 0.1 µM",75.8%
same,"viability, T/C","second compound 0.03 µM, first compound 0.316 µM",59.8%
same,"viability, T/C","second compound 0.03 µM, first compound 1 µM",57.2%
same,"viability, T/C","second compound 0.03 µM, first compound 3.16 µM",40.5%
same,"viability, T/C","second compound 0.03 µM, first compound 10 µM",34%
same,"viability, T/C","second compound 0.0949 µM, first compound 0.0316 µM",79.5%
same,"viability, T/C","second compound 0.0949 µM, first compound 0.1 µM",64.7%
same,"viability, T/C","second compound 0.0949 µM, first compound 0.316 µM",57%
same,"viability, T/C","second compound 0.0949 µM, first compound 1 µM",46%
same,"viability, T/C","second compound 0.0949 µM, first compound 3.16 µM",39.2%
same,"viability, T/C","second compound 0.0949 µM, first compound 10 µM",31.8%
same,"viability, T/C","second compound 0.3 µM, first compound 0.0316 µM",69.5%
same,"viability, T/C","second compound 0.3 µM, first compound 0.1 µM",52%
same,"viability, T/C","second compound 0.3 µM, first compound 0.316 µM",45%
same,"viability, T/C","second compound 0.3 µM, first compound 1 µM",36.9%
same,"viability, T/C","second compound 0.3 µM, first compound 3.16 µM",34.2%
same,"viability, T/C","second compound 0.3 µM, first compound 10 µM",29.4%
CCC(CC)c1cc(NC2CCC(N)C2)n2nccc2n1 (stereo not given) + C#Cc1c(F)ccc2cc(O)cc(-c3ncc4c(N5CC6CCC(C5)N6)nc(OCC56CCCN5CC(F)C6)nc4c3F)c12,IC50,[1],1690 nM
same,IC50,[2],1640 nM
same,IC50,[3],1660 nM
same,IC50,[4],1740 nM
same,IC50,[5],1790 nM
same,IC50,[6],1720 nM
same,"viability, T/C",[7],96.8%
same,"viability, T/C",[8],91.5%
same,"viability, T/C",[9],103%
same,"viability, T/C",[10],91.5%
same,"viability, T/C",[11],0.88%
same,"viability, T/C",[12],0.24%
same,"viability, T/C",[13],104%
same,"viability, T/C",[14],104%
same,"viability, T/C",[15],92.9%
same,"viability, T/C",[16],87.3%
same,"viability, T/C",[17],0.78%
same,"viability, T/C",[18],0.23%
same,"viability, T/C",[19],107%
same,"viability, T/C",[20],93.9%
same,"viability, T/C",[21],98.5%
same,"viability, T/C",[22],88.3%
same,"viability, T/C",[23],0.84%
same,"viability, T/C",[24],0.9%
same,"viability, T/C",[25],112%
same,"viability, T/C",[26],112%
same,"viability, T/C",[27],120%
same,"viability, T/C",[28],95.2%
same,"viability, T/C",[29],1.22%
same,"viability, T/C",[30],0.22%
same,"viability, T/C",[31],103%
same,"viability, T/C",[32],107%
same,"viability, T/C",[33],107%
same,"viability, T/C",[34],100%
same,"viability, T/C",[35],0.97%
same,"viability, T/C",[36],0.24%
same,"viability, T/C",[37],116%
same,"viability, T/C",[38],105%
same,"viability, T/C",[39],105%
same,"viability, T/C",[40],94.2%
same,"viability, T/C",[41],0.5%
same,"viability, T/C",[42],0.27%
Nc1ccn(C2OC(CO)C(O)C2(F)F)c(=O)n1 (stereo not given),"viability, T/C",compound 0.00316 µM,103% (2×) and 77.4% and 105%
same,"viability, T/C",compound 0.01 µM,65.5% [middle of 4 runs]
same,"viability, T/C",compound 0.0316 µM,32.3% [middle of 4 runs]
same,"viability, T/C",compound 0.1 µM,19.3% [middle of 4 runs]
same,"viability, T/C",compound 0.316 µM,21% [middle of 4 runs]
same,"viability, T/C",compound 1 µM,22.2% [middle of 4 runs]
same,IC50,curve of compound,17 nM and 10.3 nM and 16.8 nM
